The text below walks through data of patent publication US20260102383A1, “LPAR1 Inhibitors” (AbbVie Inc., priority 2024, published 2026).

The target of this assay is T1, human LPAR1 (Homo sapiens, UniProt Q92633).
T1 construct: host or cells: TangoEDG2-bla U2OS cells
T1 sequence (Q92633 whole entry): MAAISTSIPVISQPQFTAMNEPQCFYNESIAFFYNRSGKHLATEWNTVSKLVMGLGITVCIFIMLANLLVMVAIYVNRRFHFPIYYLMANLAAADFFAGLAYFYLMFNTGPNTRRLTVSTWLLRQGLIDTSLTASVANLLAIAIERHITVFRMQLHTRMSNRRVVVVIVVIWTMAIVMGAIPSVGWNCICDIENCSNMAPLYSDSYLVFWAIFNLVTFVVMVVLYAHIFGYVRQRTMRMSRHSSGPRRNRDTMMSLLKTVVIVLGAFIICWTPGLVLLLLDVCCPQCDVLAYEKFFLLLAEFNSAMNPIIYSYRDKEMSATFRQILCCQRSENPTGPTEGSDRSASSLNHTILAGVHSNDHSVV
The experiment in a line: Arrestin assay (Arrestin Reporter EDG2-bla U2OS), inhibition of LPA-stimulated signal. It counts as cell-based. The settings on record: TangoEDG2-bla U2OS cells expressing human LPAR1; 0.25 μM LPA; read-out: Arrestin Reporter EDG2-bla U2OS Human Merged IC50. In outline:
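IC50 comes from a variable-slope 4-parameter fit of % inhibition, calculated from the beta-lactamase FRET ratio (emission 460/530 nm, excitation 409 nm, 2 h development at RT). Compounds, 10 μM down to 0.00006 μM in 3-fold steps, were given 1 h before 0.25 μM final LPA for 3 h in TangoEDG2-bla U2OS cells.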
The term IC50 denotes the concentration at which inhibition is half-maximal. As for `COC[C@H](CN1CCC(C(=O)Nc2ccc(Cl)cc2OC(F)F)(n2ncc3c2C(C)(C)OC3)CC1)C(=O)O` [Compound 208, (2S)-2-[[4-[[4-chloro-2-(difluoromethoxy)phenyl]carbamoyl]-4-(6,6-dimethyl-4H-furo[3,4-c]pyrazol-1-yl)-1-piperidyl]methyl]-3-methoxy-propanoic acid], the IC50 was determined as 94.4 nM.
In the case of `CC(C)c1c(F)cnn1C1(C(=O)Nc2ccc(Cl)cc2OC(F)F)CCN(C[C@@H](CO)C(=O)O)CC1` [Compound 209, (2S)-2-[[4-[[4-chloro-2-(difluoromethoxy)phenyl]carbamoyl]-4-(4-fluoro-5-isopropyl-pyrazol-1-yl)-1-piperidyl]methyl]-3-hydroxy-propanoic acid], the IC50 amounted to 33.6 nM.
Under `COCC[C@@H](CN1CCC(C(=O)Nc2ccc(Cl)cc2OC(F)F)(n2ncc3c2C(C)(C)OC3)CC1)C(=O)O` [Compound 210, (2S)-2-[[4-[[4-chloro-2-(difluoromethoxy)phenyl]carbamoyl]-4-(6,6-dimethyl-4H-furo[3,4-c]pyrazol-1-yl)-1-piperidyl]methyl]-4-methoxy-butanoic acid] stands 123 nM; under `COC[C@@H](CN1CCC(C(=O)Nc2ccc(Cl)cc2OC(F)F)(n2ncc3c2C(C)(C)OC3)CC1)C(=O)O` [Compound 211, (2R)-2-[[4-[[4-chloro-2-(difluoromethoxy)phenyl]carbamoyl]-4-(6,6-dimethyl-4H-furo[3,4-c]pyrazol-1-yl)-1-piperidyl]methyl]-3-methoxy-propanoic acid], 87.3 nM.
Then `CC(C)c1c(F)cnn1C1(C(=O)Nc2ccc(Cl)cc2OC(F)F)CCN([C@H]2C[C@](C)(C(=O)O)C2)CC1` [Compound 212, (1r,3r)-3-[4-[[4-chloro-2-(difluoromethoxy)phenyl]carbamoyl]-4-(4-fluoro-5-isopropyl-pyrazol-1-yl)-1-piperidyl]-1-methyl-cyclobutanecarboxylic acid], with 46.3 nM; and `CC(C)c1c(F)cnn1C1(C(=O)Nc2ccc(Cl)cc2OC(F)F)CCN(C[C@H](CO)C(=O)O)CC1` [Compound 213, (2R)-2-[[4-[[4-chloro-2-(difluoromethoxy)phenyl]carbamoyl]-4-(4-fluoro-5-isopropyl-pyrazol-1-yl)-1-piperidyl]methyl]-3-hydroxy-propanoic acid], with 22.2 nM.
Regarding `CC(C)c1c(F)cnn1C1(C(=O)Nc2ccc(Cl)cc2OC(F)F)CCN([C@H]2CO[C@@H](C(=O)O)C2)CC1` [Compound 214, (2R,4R)-4-[4-[[4-chloro-2-(difluoromethoxy)phenyl]carbamoyl]-4-(4-fluoro-5-isopropyl-pyrazol-1-yl)-1-piperidyl]tetrahydrofuran-2-carboxylic acid], the concentration for half-maximal inhibition (IC50) turned out to be 75.8 nM.
Then `CC(C)c1ccnn1C1(C(=O)Nc2ccc(Cl)cc2OC(F)F)CCN(C[C@@H](C(=O)O)C2COCCOC2)CC1` [Compound 215, (2S)-3-[4-[[4-chloro-2-(difluoromethoxy)phenyl]carbamoyl]-4-(5-isopropylpyrazol-1-yl)-1-piperidyl]-2-(1,4-dioxepan-6-yl)propanoic acid], with 18.5 nM; and `CC(C)c1ccnn1C1(C(=O)Nc2ccc(Cl)cc2OC(F)F)CCN(C[C@H](C(=O)O)C2COCCOC2)CC1` [Compound 216, (2R)-3-[4-[[4-chloro-2-(difluoromethoxy)phenyl]carbamoyl]-4-(5-isopropylpyrazol-1-yl)-1-piperidyl]-2-(1,4-dioxepan-6-yl)propanoic acid], with 28.4 nM; and `CC(C)c1ccnn1C1(C(=O)Nc2ccc(Cl)cc2OC(F)F)CCN([C@H]2C[C@@](C(=O)O)(C(F)F)C2)CC1` [Compound 220, (1s,3s)-3-[4-[[4-chloro-2-(difluoromethoxy)phenyl]carbamoyl]-4-(5-isopropylpyrazol-1-yl)-1-piperidyl]-1-(difluoromethyl) cyclobutanccarboxylic acid], with 71.5 nM.
Under `CC(C)c1ccnn1C1(C(=O)Nc2ccc(Cl)cc2OC(F)F)CCN([C@H]2C[C@](C(=O)O)(C(F)F)C2)CC1` [Compound 221] stands 27.7 nM.
Consider `CC(C)c1ccnn1C1(C(=O)Nc2ccc(Cl)cc2OC(F)F)CCN(C[C@@H](C(=O)O)[C@@H](C)O)CC1` [Compound 222, (2R,3R)-2-[[4-[[4-chloro-2-(difluoromethoxy)phenyl]carbamoyl]-4-(5-isopropylpyrazol-1-yl)-1-piperidyl]methyl]-3-hydroxy-butanoic acid], for which the IC50 stood at 47.9 nM.
With `CC(C)c1ccnn1C1(C(=O)Nc2ccc(Cl)cc2OC(F)F)CCN(C[C@@H](C(=O)O)[C@H](C)O)CC1` [Compound 223, (2R,3S)-2-[[4-[[4-chloro-2-(difluoromethoxy)phenyl]carbamoyl]-4-(5-isopropylpyrazol-1-yl)-1-piperidyl]methyl]-3-hydroxy-butanoic acid], the IC50 amounted to 59.5 nM.
For `COc1cnn([C@H](CN2CCC(C(=O)Nc3ccc(Cl)cc3OC(F)F)(n3nccc3C(C)C)CC2)C(=O)O)c1` [Compound 224, (2R)-3-[4-[[4-chloro-2-(difluoromethoxy)phenyl]carbamoyl]-4-(5-isopropylpyrazol-1-yl)-1-piperidyl]-2-(4-methoxypyrazol-1-yl)propanoic acid], the IC50 is 31.1 nM.
`COc1cnn([C@@H](CN2CCC(C(=O)Nc3ccc(Cl)cc3OC(F)F)(n3nccc3C(C)C)CC2)C(=O)O)c1` [Compound 225, (2S)-3-[4-[[4-chloro-2-(difluoromethoxy)phenyl]carbamoyl]-4-(5-isopropylpyrazol-1-yl)-1-piperidyl]-2-(4-methoxypyrazol-1-yl)propanoic acid]: the IC50 was found to be 30.9 nM.
For `CO[C@H]1C[C@@H]([C@H](CN2CCC(C(=O)Nc3ccc(Cl)cc3OC(F)F)(n3nccc3C(C)C)CC2)C(=O)O)C1` [Compound 226], the IC50 stood at 39.9 nM.
As for `CO[C@H]1C[C@@H]([C@@H](CN2CCC(C(=O)Nc3ccc(Cl)cc3OC(F)F)(n3nccc3C(C)C)CC2)C(=O)O)C1` [Compound 227, (2S)-3-[4-[[4-chloro-2-(difluoromethoxy)phenyl]carbamoyl]-4-(5-isopropylpyrazol-1-yl)-1-piperidyl]-2-((1s,3R)-3-methoxycyclobutyl) propanoic acid], the IC50 is 38.3 nM.
`CCOC[C@H](CN1CCC(C(=O)Nc2ccc(Cl)cc2OC(F)F)(n2nccc2C(C)C)CC1)C(=O)O` [Compound 228, (2S)-2-[[4-[[4-chloro-2-(difluoromethoxy)phenyl]carbamoyl]-4-(5-isopropylpyrazol-1-yl)-1-piperidyl]methyl]-3-ethoxy-propanoic acid]: the IC50 turned out to be 16.6 nM.
Turning to `CO[C@H]1C[C@H]([C@H](CN2CCC(C(=O)Nc3ccc(Cl)cc3OC(F)F)(n3nccc3C(C)C)CC2)C(=O)O)C1` [Compound 229, (2R)-3-[4-[[4-chloro-2-(difluoromethoxy)phenyl]carbamoyl]-4-(5-isopropylpyrazol-1-yl)-1-piperidyl]-2-((1r,3R)-3-methoxycyclobutyl) propanoic acid], the IC50 stood at 29.2 nM.
Take `CO[C@H]1C[C@H]([C@@H](CN2CCC(C(=O)Nc3ccc(Cl)cc3OC(F)F)(n3nccc3C(C)C)CC2)C(=O)O)C1` [Compound 230, (2S)-3-[4-[[4-chloro-2-(difluoromethoxy)phenyl]carbamoyl]-4-(5-isopropylpyrazol-1-yl)-1-piperidyl]-2-((1r,3S)-3-methoxycyclobutyl) propanoic acid]: the IC50 was 25.5 nM.
Take `CCOC[C@@H](CN1CCC(C(=O)Nc2ccc(Cl)cc2OC(F)F)(n2nccc2C(C)C)CC1)C(=O)O` [Compound 231, (2R)-2-[[4-[[4-chloro-2-(difluoromethoxy)phenyl]carbamoyl]-4-(5-isopropylpyrazol-1-yl)-1-piperidyl]methyl]-3-ethoxy-propanoic acid]: the IC50 worked out at 14.2 nM.
With `CC(C)c1ccnn1C1(C(=O)Nc2ccc(Cl)cc2OC(F)F)CCN(CC(COCC(F)(F)F)C(=O)O)CC1` (centres unmarked) [Compound 232, 2-[[4-[[4-chloro-2-(difluoromethoxy)phenyl]carbamoyl]-4-(5-isopropylpyrazol-1-yl)-1-piperidyl]methyl]-3-(2.2,2-trifluoroethoxy)propanoic acid], the IC50 was found to be 8.37 nM.
As for `CC(C)c1ccnn1C1(C(=O)Nc2ccc(Cl)cc2OC(F)F)CCN(C[C@@H](COCC(F)(F)F)C(=O)O)CC1` [Compound 233, (2S)-2-[[4-[[4-chloro-2-(difluoromethoxy)phenyl]carbamoyl]-4-(5-isopropylpyrazol-1-yl)-1-piperidyl]methyl]-3-(2,2,2-trifluoroethoxy)propanoic acid], the IC50 worked out at 8.94 nM.
Consider `CC(C)c1ccnn1C1(C(=O)Nc2ccc(Cl)cc2OC(F)F)CCN(C[C@H](COCC(F)(F)F)C(=O)O)CC1` [Compound 234, (2R)-2-[[4-[[4-chloro-2-(difluoromethoxy)phenyl]carbamoyl]-4-(5-isopropylpyrazol-1-yl)-1-piperidyl]methyl]-3-(2,2,2-trifluoroethoxy)propanoic acid], for which the IC50 was found to be 9.54 nM.
Regarding `CC(C)c1ccnn1C1(C(=O)Nc2ccc(Cl)cc2OC(F)F)CCN(C[C@@](C)(O)C(=O)O)CC1` [Compound 235, (2R)-3-[4-[[4-chloro-2-(difluoromethoxy)phenyl]carbamoyl]-4-(5-isopropylpyrazol-1-yl)-1-piperidyl]-2-hydroxy-2-methyl-propanoic acid], the IC50 was 20.9 nM.
For `CC(C)c1ccnn1C1(C(=O)Nc2ccc(Cl)cc2OC(F)F)CCN(C[C@](C)(O)C(=O)O)CC1` [Compound 236, (2S)-3-[4-[[4-chloro-2-(difluoromethoxy)phenyl]carbamoyl]-4-(5-isopropylpyrazol-1-yl)-1-piperidyl]-2-hydroxy-2-methyl-propanoic acid], the 50% inhibitory concentration (IC50) amounted to 64.8 nM.
